According to patent US9562268B2, “Risk assessment for adverse drug reactions” (Academia Sinica, priority 2003, dated 2017):
Where two headings read alike, the source gives them in different places.

Assays:
HLA-Cw*0806 = details: human, in vivo
Protocol: (§1) A total of 112 SJS/TEN patients were recruited either from Chang Gung Memorial Hospital or from several other medical centers throughout Taiwan. […] Drug taking history including dosage and duration, and the phenotypes of adverse drug reactions were recorded. The diagnostic criteria of clinical morphology were defined according to Roujeau (Roujeau J C, 1994). We define SJS as skin detachment of less than 10% of body-surface area, overlap SJS-TEN as skin detachment of 10-30%, and TEN as greater than 30%. SJS, overlap SJS-TEN and TEN are collectively referred to as SJS/TEN.
(§2) 73 tegretol-tolerant patients were included as controls. Volunteers from the general population of Taiwanese (n=94; age range: 20 to 80 years) were also recruited. The study was approved by the institutional review board, and informed consent was obtained.
(§3) Reagents for reverse lineblot sequence-specific oligonucleotide (SSO) were purchased from DYNAL Biotech Ltd. (Bromborough, UK) and used for HLA genotyping. Briefly, a PCR product was generated using biotinylated primer pairs for the second and the third exons of the HLA class I or class II loci, and then hybridized to a lineblot of SSO of probes immobilized on a nylon membrane. The presence of biotinylated PCR product bound to a specific probe is detected using streptavidin-horseradish peroxidase (HRP) and a chromogenic, soluble substrate to produce a blue “line” at the position of the positive probe. The probe reactivity pattern was interpreted by the genotyping software Dynal RELI™ SSO (DYNAL Biotech Ltd.; Bromborough, UK). Potential ambiguities were further resolved by sequence-based typing and DNA sequencing performed according to the IHWG Technical Manual (International Histocompatibility Working Group).

HLA-Cw*0302 = details: human, in vivo
Protocol: as §1, §2, §3

HLA-Cw*0801 = details: human, in vivo
Protocol: as §1, §2, §3

HLA-A*1101 = assay: Equivalent genetic marker incidence in patients with ADRs: HLA-A*1101; assay type: in vivo, human; details: SJS/TEN patients who received the drug
Protocol: as §1, §2
(§4) Reagents for reverse lineblot sequence-specific oligonucleotide (SSO) were purchased from DYNAL Biotech Ltd. (Bromborough, UK) and used for HLA genotyping. […] The presence of biotinylated PCR product bound to a specific probe is detected using streptavidin-horseradish peroxidase (HRP) and a chromogenic, soluble substrate to produce a blue “line” at the position of the positive probe. […]

HLA-DRB1*1202 = assay: Equivalent genetic marker incidence in patients with ADRs: HLA-DRB1*1202; assay type: in vivo, human; details: SJS/TEN patients who received the drug
Protocol: as §1, §2, §4

HLA-B*4601 = tested on: HLA-B*4601
Protocol: as §1, §2, §3
Allele frequencies in the different groups were compared by the Chi-square method with Yates correction by constructing 2×2 tables. P values were corrected for comparisons of multiple HLA alleles (Pc) by multiplying the raw P values by the observed number of HLA alleles present within the loci. Odds ratios were calculated with Haldane's modification, which adds 0.5 to all cells to accommodate possible zero counts.

[1] = patients with milder cutaneous reactions to the drug (n = 16)

Row | HLA-Cw*0806 frequency (HLA-Cw*0806) | Number of patients carrying HLA-Cw*0806 (HLA-Cw*0806) | HLA-Cw*0302 frequency (HLA-Cw*0302) | Number of patients carrying HLA-Cw*0302 (HLA-Cw*0302) | HLA-Cw*0801 frequency (HLA-Cw*0801) | Number of patients carrying HLA-Cw*0801 (HLA-Cw*0801) | HLA-B*4601 frequency (HLA-B*4601; [1]) | Number of patients carrying HLA-B*4601 (HLA-B*4601; [1]) | SMILES | HLA-A*1101 frequency (HLA-A*1101) | Number of patients carrying HLA-A*1101 (HLA-A*1101) | HLA-DRB1*1202 frequency (HLA-DRB1*1202) | Number of patients carrying HLA-DRB1*1202 (HLA-DRB1*1202) | HLA-B*4601 frequency (HLA-B*4601; drug-tolerant group (n = 73)) | Number of patients carrying HLA-B*4601 (HLA-B*4601; drug-tolerant group (n = 73)) | odds ratio, B*4601 associated drug-induced milder cutaneous ADRs (HLA-B*4601; versus drug-tolerant group)
1 | 0(0%) | 0(0%) | 82% | 14 | 11.7% | 2 | – | – | Oc1ncnc2[nH]ncc12 [allopurinol] | – | – | – | – | – | – | –
2 | – | – | – | – | – | – | 62.5% | 10 | NC(=O)N1c2ccccc2C=Cc2ccccc21 [carbamazepine] | 73.8% | 31 | 83.3% | 35 | 26% | 19 | 4.73
